In general, inhibition refers to the relative decrease from the control value, in per cent.

The source of these data is patent US8765773B2, “Substituted hydroxamic acids and uses thereof” (Millennium Pharmaceuticals, Inc., priority 2010, dated 2014).

For this assay, the target named is T1, purified human HDAC6 (Homo sapiens, UniProt Q9UBN7).
T1 construct: purchased BPS Bioscience 5006
T1 sequence (Q9UBN7 1-1215): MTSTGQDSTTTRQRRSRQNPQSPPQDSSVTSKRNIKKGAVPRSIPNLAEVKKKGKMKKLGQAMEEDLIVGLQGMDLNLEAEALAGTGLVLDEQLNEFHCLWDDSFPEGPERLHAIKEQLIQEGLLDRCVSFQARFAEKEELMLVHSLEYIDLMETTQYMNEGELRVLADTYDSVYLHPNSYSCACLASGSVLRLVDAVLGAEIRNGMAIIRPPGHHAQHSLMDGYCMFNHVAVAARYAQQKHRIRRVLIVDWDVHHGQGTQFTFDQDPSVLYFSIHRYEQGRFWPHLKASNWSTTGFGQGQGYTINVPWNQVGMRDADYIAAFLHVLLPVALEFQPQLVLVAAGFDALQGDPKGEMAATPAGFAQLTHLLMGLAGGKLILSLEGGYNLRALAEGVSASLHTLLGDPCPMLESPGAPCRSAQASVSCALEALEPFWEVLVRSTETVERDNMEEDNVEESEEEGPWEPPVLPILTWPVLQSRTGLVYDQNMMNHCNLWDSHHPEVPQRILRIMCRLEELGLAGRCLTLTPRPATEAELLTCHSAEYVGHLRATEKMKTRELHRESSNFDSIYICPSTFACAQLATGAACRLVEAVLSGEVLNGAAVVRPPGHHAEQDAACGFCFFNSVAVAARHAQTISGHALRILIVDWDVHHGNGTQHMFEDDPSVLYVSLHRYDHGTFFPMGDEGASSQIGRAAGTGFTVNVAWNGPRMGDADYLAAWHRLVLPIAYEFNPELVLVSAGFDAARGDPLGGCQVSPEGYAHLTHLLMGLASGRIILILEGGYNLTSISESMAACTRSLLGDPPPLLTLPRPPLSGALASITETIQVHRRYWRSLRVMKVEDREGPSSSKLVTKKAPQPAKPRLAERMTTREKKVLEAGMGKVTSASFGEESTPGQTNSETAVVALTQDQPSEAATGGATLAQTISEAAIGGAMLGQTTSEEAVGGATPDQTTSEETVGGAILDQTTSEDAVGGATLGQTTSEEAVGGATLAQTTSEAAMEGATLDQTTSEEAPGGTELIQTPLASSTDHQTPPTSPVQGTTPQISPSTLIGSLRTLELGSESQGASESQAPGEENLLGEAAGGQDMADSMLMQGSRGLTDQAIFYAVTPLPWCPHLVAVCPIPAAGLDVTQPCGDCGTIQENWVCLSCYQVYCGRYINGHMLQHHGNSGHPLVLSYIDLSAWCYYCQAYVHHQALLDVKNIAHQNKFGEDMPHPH
Briefly: HDAC6 Enzyme Assay. The assay is classed as biochemical. As to conditions: read-out: Percent Inhibition; for inhibition at 0.412 µM: compound concentration 0.412 μM; for inhibition at 0.37 µM: compound concentration 0.37 μM. Summed up:
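Readout is AMC fluorescence (Ex 340 nm, Em 460 nm) after trypsin cleavage of the deacetylated Ac-Arg-Gly-Lys(Ac)-AMC product. Reaction: purified human HDAC6, compound or vehicle, 1 hour, 30° C, quenched by trichostatin A. Single-concentration percent inhibition or IC50 calculated versus DMSO-treated samples.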

For the compound `CCN(CC)Cc1nc2cc(C(=O)NO)ccc2c(=O)[nH]1` [Compound I-84, 2-[(diethylamino)methyl]-N-hydroxy-4-oxo-3,4-dihydroquinazoline-7-carboxamide], the inhibition at 0.412 µM is 60.5%.

As to `O=C(NO)c1ccc2c(=O)n(Cc3ccc(C(F)(F)F)cc3)c(-c3ccc4ccccc4c3)nc2c1` [Compound I-85, N-hydroxy-2-(2-naphthyl)-4-oxo-3-[4-(trifluoromethyl)benzyl]-3,4-dihydroquinazoline-7-carboxamide], the inhibition at 0.37 µM stood at 72.6%.

Consider `O=C(NO)c1ccc2c(=O)n(-c3ccccc3)c(NCc3ccc(Cl)cc3)nc2c1` [Compound I-86, 2-[(4-chlorobenzyl)amino]-N-hydroxy-4-oxo-3-phenyl-3,4-dihydroquinazoline-7-carboxamide], for which the inhibition at 0.412 µM is 74.2%.

As to `CC(C)(C)c1ccc(Cn2cnc3cc(C(=O)NO)ccc3c2=O)cc1` [Compound I-87, 3-(4-tert-butylbenzyl)-N-hydroxy-4-oxo-3,4-dihydroquinazoline-7-carboxamide], the inhibition at 0.412 µM was 91%.

For the compound `CC1(C)CCC(C)(C)c2cc(Cn3ccc4ccc(C(=O)NO)cc4c3=O)ccc21` [Compound I-88, N-hydroxy-1-oxo-2-[(5,5,8,8-tetramethyl-5,6,7,8-tetrahydronaphthalen-2-yl)methyl]-1,2-dihydroisoquinoline-7-carboxamide], the inhibition at 0.412 µM stood at 90%.

Regarding `CC(C)(C)OC(=O)N(CCCn1ccc2ccc(C(=O)NO)cc2c1=O)c1ccncc1` [Compound I-89, tert-butyl {3-[7-[(hydroxyamino)carbonyl]-1-oxoisoquinolin-2(1H)-yl]propyl}pyridin-4-ylcarbamate], the inhibition at 0.412 µM was 95.6%.

As to `O=C(NO)c1ccc2ccn(CCCOc3ccc(-c4csnn4)cc3)c(=O)c2c1` [Compound I-90, N-hydroxy-1-oxo-2-{3-[4-(1,2,3-thiadiazol-4-yl)phenoxy]propyl}-1,2-dihydroisoquinoline-7-carboxamide], the inhibition at 0.412 µM turned out to be 97.7%.

Take `O=C(NO)c1ccc2ccn(CCOc3cc(C(F)(F)F)cc(C(F)(F)F)c3)c(=O)c2c1` [Compound I-91, 2-{2-[3,5-bis(trifluoromethyl)phenoxy]ethyl}-N-hydroxy-1-oxo-1,2-dihydroisoquinoline-7-carboxamide]: the inhibition at 0.412 µM came out at 86.9%.

In the case of `O=C(NO)c1ccc2c(=O)[nH]c(CNCc3ccc(Cl)cc3)nc2c1` [Compound I-92, 2-{[(4-chlorobenzyl)amino]methyl}-N-hydroxy-4-oxo-3,4-dihydroquinazoline-7-carboxamide], the inhibition at 0.412 µM was found to be 90.9%.

`CC(C)(C)OC(=O)N1CCC(C)(C(=O)Nc2cccc(Cn3ccc4ccc(C(=O)NO)cc4c3=O)c2)CC1` [Compound I-93, tert-butyl 4-{[(3-{[7-[(hydroxyamino)carbonyl]-1-oxoisoquinolin-2(1H)-yl]methyl}phenyl)amino]carbonyl}-4-methylpiperidine-1-carboxylate]: the inhibition at 0.412 µM came out at 90.1%.

Regarding `CCCCC(CC)Cn1ccc2ccc(C(=O)NO)cc2c1=O` (centres unmarked) [Compound I-94, 2-(2-ethylhexyl)-N-hydroxy-1-oxo-1,2-dihydroisoquinoline-7-carboxamide], the inhibition at 0.412 µM was found to be 93.5%.

Consider `O=C(NO)c1ccc2ccn(CCCc3c[nH]c4ccccc34)c(=O)c2c1` [Compound I-95, N-hydroxy-2-[3-(1H-indol-3-yl)propyl]-1-oxo-1,2-dihydroisoquinoline-7-carboxamide], for which the inhibition at 0.412 µM turned out to be 98.1%.

With `O=C(NO)c1ccc2ccn(CC(c3ccccc3)C3CCCCC3)c(=O)c2c1` (centres unmarked) [Compound I-96, 2-(2-cyclohexyl-2-phenylethyl)-N-hydroxy-1-oxo-1,2-dihydroisoquinoline-7-carboxamide], the inhibition at 0.412 µM came out at 80.9%.

Turning to `COc1ccc(NCCn2ccc3ccc(C(=O)NO)cc3c2=O)cc1` [Compound I-97, N-hydroxy-2-{2-[(4-methoxyphenyl)amino]ethyl}-1-oxo-1,2-dihydroisoquinoline-7-carboxamide], the inhibition at 0.412 µM was determined as 79.1%.

As for `O=C(NO)c1ccc2ccn(Cc3cccc(Oc4ccc(F)cc4)c3)c(=O)c2c1` [Compound I-98, 2-[3-(4-fluorophenoxy)benzyl]-N-hydroxy-1-oxo-1,2-dihydroisoquinoline-7-carboxamide], the inhibition at 0.412 µM amounted to 91%.

On to `O=C(NO)c1ccc2ccn(CCOc3cc(Cl)cc(Cl)c3)c(=O)c2c1` [Compound I-99, 2-[2-(3,5-dichlorophenoxy)ethyl]-N-hydroxy-1-oxo-1,2-dihydroisoquinoline-7-carboxamide], for which the inhibition at 0.412 µM is 93%.

`CCC(C)c1nc2cc(C(=O)NO)ccc2c(=O)n1Cc1ccc(C(F)(F)F)cc1` (centres unmarked) [Compound I-100, 2-sec-butyl-N-hydroxy-4-oxo-3-[4-(trifluoromethyl)benzyl]-3,4-dihydroquinazoline-7-carboxamide]: the inhibition at 0.37 µM was 90.6%.

For `COc1cc(OC)cc(OCCn2ccc3ccc(C(=O)NO)cc3c2=O)c1` [Compound I-101, 2-[2-(3,5-dimethoxyphenoxy)ethyl]-N-hydroxy-1-oxo-1,2-dihydroisoquinoline-7-carboxamide], the inhibition at 0.412 µM amounted to 95.7%.

For the compound `O=C(NO)c1ccc2ccn(Cc3c(F)cc(F)cc3F)c(=O)c2c1` [Compound I-102, N-hydroxy-1-oxo-2-(2,4,6-trifluorobenzyl)-1,2-dihydroisoquinoline-7-carboxamide], the inhibition at 0.412 µM was 94.3%.

Regarding `O=C(NO)c1ccc2ccn(CCC(c3ccc(Cl)cc3)C3CCNCC3)c(=O)c2c1` (centres unmarked) [Compound I-103, 2-[3-(4-chlorophenyl)-3-piperidin-4-ylpropyl]-N-hydroxy-1-oxo-1,2-dihydroisoquinoline-7-carboxamide], the inhibition at 0.37 µM worked out at 100%.

Consider `O=C(NO)c1ccc2ncn(CCc3ccccn3)c(=O)c2c1` [Compound I-104, N-hydroxy-4-oxo-3-(2-pyridin-2-ylethyl)-3,4-dihydroquinazoline-6-carboxamide], for which the inhibition at 0.412 µM amounted to 82.5%.

In the case of `O=C(NO)c1ccc2ccn(C3CCCC3)c(=O)c2c1` [Compound I-105, 2-cyclopentyl-N-hydroxy-1-oxo-1,2-dihydroisoquinoline-7-carboxamide], the inhibition at 0.412 µM is 86.5%.

Take `O=C(NO)c1ccc2c(=O)n(Cc3ccc(C(F)(F)F)cc3)c(C3CCCC3)nc2c1` [Compound I-106, 2-cyclopentyl-N-hydroxy-4-oxo-3-[4-(trifluoromethyl)benzyl]-3,4-dihydroquinazoline-7-carboxamide]: the inhibition at 0.37 µM is 78.5%.

Regarding `Cc1cccc(OCc2nc3cc(C(=O)NO)ccc3c(=O)[nH]2)c1` [Compound I-107, N-hydroxy-2-[(3-methylphenoxy)methyl]-4-oxo-3,4-dihydroquinazoline-7-carboxamide], the inhibition at 0.412 µM worked out at 85.2%.

With `O=C(NO)c1ccc2ccn(CCNc3cccc(-n4cccn4)c3)c(=O)c2c1` [Compound I-108, N-hydroxy-1-oxo-2-(2-{[3-(1H-pyrazol-1-yl)phenyl]amino}ethyl)-1,2-dihydroisoquinoline-7-carboxamide], the inhibition at 0.412 µM came out at 91.4%.

As to `O=C(NO)c1ccc2ccn(Cc3cccc(F)c3)c(=O)c2c1` [Compound I-109, 2-(3-fluorobenzyl)-N-hydroxy-1-oxo-1,2-dihydroisoquinoline-7-carboxamide], the inhibition at 0.412 µM stood at 95.9%.
